# Laboratory results published in a melting point compilation (Tetko et al.; mined from patent text by program, amines drawn as free bases though some values may be those of a salt).
row,SMILES,melting point
1,CCCCNCC(O)COc1ccc(-c2nc(C(F)(F)F)c[nH]2)cc1 (stereo not given),151 to 154 °C
2,COc1cccc(CCc2ccccc2OC[C@H]2CCCN(C(=O)OC(C)(C)C)C2)c1,150 to 152 °C
3,CCCCOc1ccc(S(=O)(=O)N2CC(NCC(O)c3ccc(O)c(NS(C)(=O)=O)c3)C2)cc1 (stereo not given),67 to 70 °C
4,CS(=O)(=O)c1nnc(-c2ccc3occ(-c4ccc(OC(F)(F)F)cc4)c3c2)o1,196 to 197 °C
5,CC(=O)NCCn1ccc2c1-c1ccc(Cl)cc1CC2,144 to 145 °C
6,COC(=O)C(C#N)=CC1=C(N2CCCC2)CCCC1,133 to 134 °C
7,CCCN(CCC)C(N)=C(C#N)C(N)=S,141 to 144 °C
8,CCCc1cc(CCCOc2c(C)cc(-c3nc(C)no3)cc2C)on1,35 to 37 °C
9,Cc1noc(NS(=O)(=O)c2ccccc2-c2cc3ccccc3[nH]2)c1C,172 to 175 °C
10,CCOC(=O)C(=CNC1CCCCC1)C(=O)c1ccc(I)cc1Cl,154 to 156 °C
11,CN(CC(O)c1ccc(C=O)cc1)C(=O)OC(C)(C)C (stereo not given),37 to 39 °C
12,CC(=O)Nc1ncc(Sc2nnnn2C)s1,208 to 210 °C
13,CC(=O)C=Cc1c(C)c(C)c(C)c2c1OC(C)(C)C2,125 °C
14,COc1ccc(S(=O)(=O)Nc2c(Nc3ccccc3)ncnc2OC)cc1,159 to 160 °C
15,FC(F)(F)c1c[nH]c(-c2cccc(OCC3CO3)c2)n1 (stereo not given),145 to 146 °C
16,COP(=S)(OC)Oc1nc(OCc2ccccc2)sc1C#N,47 °C
17,Cc1cc(C)c(-c2c(O)sc(-c3ccccc3)nc2=O)c(C)c1,240 to 242 °C
18,CC(C)(C)N1C(=O)c2cnc(CCl)cc2C1=O,62 to 64 °C

row,SMILES,melting point
1,CCOC(=O)Cn1[nH]c(=O)c2ccccc2c1=O,68 to 70 °C
2,Nc1nc2ccccc2c2c1ncn2CCOCCCc1cccs1,130 to 132 °C
3,COc1cc(N(C)C)c(Cl)cc1C(=O)NCC1CN(Cc2ccc(C#N)cc2)CCO1 (stereo not given),161 to 163 °C
4,COc1cc2c(c(OC)c1OC)C(C)(C)CC(C=O)=C2,178 to 180 °C
5,Cc1cc(-c2cccc(C(F)(F)F)c2)c2nc(OCC(F)(F)F)nnc2c1,140 to 141 °C
6,CC(C)NNC(=O)NC1c2ccccc2Oc2ccccc21,162 °C
7,CCCCOc1cc(/C=C(\OCC)C(=O)O)ccc1OCCc1ccc(OCC)c(F)c1,119 °C
8,CCCCC1=C(C#N)C(c2cccc3nonc23)c2c[nH]nc2N1 (stereo not given),200 °C
9,CCC(CNC(=O)OC(C)(C)C)n1cnc2c(N)nc3ccccc3c21 (stereo not given),171 to 173 °C
10,Cc1nc(N2C[C@H](C)N(Cc3ccc(F)cc3)C2=O)sc1C(=O)O,208 to 210 °C
11,Cc1ccc(-c2nc3ccccc3o2)c(F)c1,115 to 117 °C
12,CCCN1CCCC(c2ccc(OC)c3c2CC(=O)N3)C1 (stereo not given),120 °C
13,COc1cc(Br)cc2nc(SCc3ccccc3)nn12,80 to 82 °C
14,CC(C)(C)NS(=O)(=O)c1c(CO)nsc1OCC(F)(F)F,113 to 116 °C
15,NC(=O)NC(=O)c1ccccc1,175 °C
16,Cn1ccc(NC(=O)c2cc(C#N)cc(C(F)(F)F)n2)n1,190 °C
17,COc1cc(C(=O)OCC2(N(C)C)CCCc3sccc32)cc(OC)c1OC (stereo not given),82 to 83 °C
